In patent US20230233569A1 (Revolution Medicines, Inc., priority 2020, published 2023):
pIC50: −log10 of the molar value. Where two headings read alike, the source gives them in different places.

Legend:
[1] = test system: NCI-H358 (K-Ras G12C); test: CellTiter-Glo cell viability assay, 5-day treatment; assay type: cell-based; conditions: Homo sapiens
Procedure: Protocol: CellTiter-Glo® Cell Viability Assay
Note—The following protocol describes a procedure for monitoring cell viability of K-Ras mutant cancer cell lines in response to a compound of the invention. Other RAS isoforms may be employed, though the number of cells to be seeded will vary based on cell line used.
(§1) Test compounds (132.5 nL) were directly dispensed into the assay plates containing cells. […] On day 5, assay plates and their contents were equilibrated to room temperature for approximately 30 minutes. […] Luminescence was measured using the PerkinElmer Enspire. Data were normalized by the following: (Sample signal/Avg. DMSO)*100. The data were fit using a four-parameter logistic fit.
as §1, with “nl)” for “nL)”

[2] = target: KRAS WT (Homo sapiens, UniProt P01116+P62937); test: Disruption of BRAF RBD interaction with Ras (FRET / MOA assay, with Cyclophilin A); assay type: biochemical
Chain of KRAS WT (P01116 1-169 isoform P01116-2 limits assumed): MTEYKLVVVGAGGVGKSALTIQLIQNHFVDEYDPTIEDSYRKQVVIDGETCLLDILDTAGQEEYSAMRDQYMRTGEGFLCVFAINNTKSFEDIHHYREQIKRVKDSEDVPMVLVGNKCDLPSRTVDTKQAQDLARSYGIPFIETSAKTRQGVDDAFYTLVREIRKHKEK
Chain of KRAS WT (P62937 whole entry): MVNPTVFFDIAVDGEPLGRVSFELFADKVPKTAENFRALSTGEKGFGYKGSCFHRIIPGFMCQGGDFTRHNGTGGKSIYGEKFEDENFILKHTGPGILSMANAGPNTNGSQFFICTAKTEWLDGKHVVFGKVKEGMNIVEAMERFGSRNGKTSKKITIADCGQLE
From the text: (§2) This protocol may also be executed substituting other Ras proteins or nucleotides.
(§3) The purpose of this biochemical assay was to measure the ability of test compounds to facilitate ternary complex formation between a nucleotide-loaded K-Ras isoform and Cyclophilin A; the resulting ternary complex disrupts binding to a BRAF^RBD construct, inhibiting K-Ras signaling through a RAF effector. Data is reported as IC50 values.
(§4) Compound was present in plate wells as a 10-point 3-fold dilution series starting at a final concentration of 30 μM. After incubation at 25° C. for 3 hours, a mixture of Anti-His Eu-W1024 and anti-GST allophycocyanin was then added to assay sample wells at final concentrations of 10 nM and 50 nM, respectively, and the reaction incubated for an additional 1.5 hours. […] Compounds that facilitate disruption of a K-Ras:RAF complex were identified as those eliciting a decrease in the TR-FRET ratio relative to DMSO control wells.
as §3, with “BRAF^RBDD” for “BRAF^RBD”

[3] = target: KRAS G13D (Homo sapiens, UniProt P01116+P62937, G13D); test: as above; assay type: biochemical
Chain of KRAS G13D (P01116 1-169 isoform P01116-2 G13D limits assumed): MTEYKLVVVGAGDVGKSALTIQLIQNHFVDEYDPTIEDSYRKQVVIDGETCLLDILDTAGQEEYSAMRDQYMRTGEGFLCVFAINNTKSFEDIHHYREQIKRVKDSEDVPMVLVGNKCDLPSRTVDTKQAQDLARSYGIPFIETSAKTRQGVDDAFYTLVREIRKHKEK
Chain of KRAS G13D (P62937 whole entry): as the sequence (P62937 whole entry) above
From the text: as §2, §3, §4
as §3, with “BRAF^RBDD” for “BRAF^RBD”

[4] = target: KRAS G12S (Homo sapiens, UniProt P01116+P62937, G12S); test: as above; assay type: biochemical
Chain of KRAS G12S (P01116 1-169 isoform P01116-2 G12S limits assumed): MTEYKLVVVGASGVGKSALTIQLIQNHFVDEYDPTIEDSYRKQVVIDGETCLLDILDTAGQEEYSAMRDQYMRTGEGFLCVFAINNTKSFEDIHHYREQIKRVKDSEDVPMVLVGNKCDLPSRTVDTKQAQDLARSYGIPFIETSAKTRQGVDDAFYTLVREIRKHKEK
Chain of KRAS G12S (P62937 whole entry): as the sequence (P62937 whole entry) above
From the text: as §2, §3, §4
as §3, with “BRAF^RBDD” for “BRAF^RBD”

[5] = target: KRAS G13C (Homo sapiens, UniProt P01116+P62937, G13C); test: as above; assay type: biochemical
Chain of KRAS G13C (P01116 1-169 isoform P01116-2 G13C): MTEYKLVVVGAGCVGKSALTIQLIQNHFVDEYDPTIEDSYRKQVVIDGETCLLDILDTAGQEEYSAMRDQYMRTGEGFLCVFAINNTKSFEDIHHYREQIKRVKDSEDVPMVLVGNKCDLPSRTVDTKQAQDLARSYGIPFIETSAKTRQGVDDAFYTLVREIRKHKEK
Chain of KRAS G13C (P62937 whole entry): as the sequence (P62937 whole entry) above
From the text: as §2, §3, §4
as §3, with “BRAF^RBDD” for “BRAF^RBD”

[6] = target: KRAS G12D (Homo sapiens, UniProt P01116+P62937, G12D); test: as above; assay type: biochemical
Chain of KRAS G12D (P01116 1-169 isoform P01116-2 G12D limits assumed): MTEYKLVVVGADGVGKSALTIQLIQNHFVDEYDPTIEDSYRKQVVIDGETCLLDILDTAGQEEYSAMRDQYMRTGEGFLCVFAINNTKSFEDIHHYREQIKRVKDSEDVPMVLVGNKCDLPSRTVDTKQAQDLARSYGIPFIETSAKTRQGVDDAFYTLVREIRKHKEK
Chain of KRAS G12D (P62937 whole entry): as the sequence (P62937 whole entry) above
From the text: as §2, §3, §4
as §3, with “BRAF^RBDD” for “BRAF^RBD”

[7] = target: KRAS G12V (Homo sapiens, UniProt P01116+P62937, G12V); test: as above; assay type: biochemical
Chain of KRAS G12V (P01116 1-169 isoform P01116-2 G12V limits assumed): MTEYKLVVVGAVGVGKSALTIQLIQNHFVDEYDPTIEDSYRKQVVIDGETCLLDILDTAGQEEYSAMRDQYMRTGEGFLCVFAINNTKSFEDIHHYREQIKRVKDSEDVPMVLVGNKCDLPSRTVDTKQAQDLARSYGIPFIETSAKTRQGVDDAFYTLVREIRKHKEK
Chain of KRAS G12V (P62937 whole entry): as the sequence (P62937 whole entry) above
From the text: as §2, §3, §4
as §3, with “BRAF^RBDD” for “BRAF^RBD”

[8] = target: KRAS G12C (Homo sapiens, UniProt P01116+P62937, G12C); test: as above; assay type: biochemical
Chain of KRAS G12C (P01116 1-169 isoform P01116-2 G12C): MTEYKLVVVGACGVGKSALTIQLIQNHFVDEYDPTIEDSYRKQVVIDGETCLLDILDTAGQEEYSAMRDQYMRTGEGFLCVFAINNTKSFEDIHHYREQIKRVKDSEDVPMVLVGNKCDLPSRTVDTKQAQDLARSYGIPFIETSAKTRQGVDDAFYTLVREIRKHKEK
Chain of KRAS G12C (P62937 whole entry): as the sequence (P62937 whole entry) above
From the text: as §2, §3, §4
as §3, with “BRAF^RBDD” for “BRAF^RBD”

[9] = target: NRAS G12C (Homo sapiens, UniProt P01111+P62937, G12C); test: as above; assay type: biochemical; conditions: NRAS G12C; read-out: NRAS G12C FRET data IC50
Chain of NRAS G12C (P01111 whole entry G12C): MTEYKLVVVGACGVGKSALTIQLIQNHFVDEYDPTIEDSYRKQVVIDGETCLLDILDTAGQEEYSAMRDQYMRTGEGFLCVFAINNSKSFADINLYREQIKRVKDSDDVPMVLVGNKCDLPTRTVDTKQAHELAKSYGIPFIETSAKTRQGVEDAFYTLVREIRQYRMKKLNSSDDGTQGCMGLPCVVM
Chain of NRAS G12C (P62937 whole entry): as the sequence (P62937 whole entry) above
From the text: as §2, §3, §4
as §3, with “BRAF^RBDD” for “BRAF^RBD”

[10] = NCI-H358, H358, K-Ras G12C, read-out: Additional H358 Cell Viability assay data (K-Ras G12C, IC50)
[11] = KRAS WT, read-out: KRAS WT FRET data IC50
[12] = KRAS G13D, read-out: KRAS G13D FRET data IC50
[13] = read-out: KRAS G12S FRET data, IC50
[14] = read-out: KRAS G13C FRET data, IC50
[15] = read-out: KRAS G12D FRET data, IC50
[16] = KRAS G12V, read-out: KRAS G12V FRET data IC50
[17] = read-out: KRAS G12C FRET data, IC50
[18] = NCI-H358, 120 h, 5-day treatment, read-out: H358 Cell Viability assay data (K-Ras G12C, IC50)
[19] = KRAS G12C, read-out: KRAS G12C FRET data IC50

CCn1c(-c2cccnc2[C@H](C)OC)c2c3cc(ccc31)-c1cccc(c1)C[C@H](NC(=O)[C@H](C(C)C)N(C)C(=O)[C@H]1CCN(C(=O)/C=C/CN3CC(OC)C3)C1)C(=O)N1CCC[C@H](N1)C(=O)OCC(C)(C)C2 (atropisomer, axis not shown) [Example A204]
pIC50 [1, 10]: 7.00 to 8.00

C=CC(=O)N1CC[C@H](C(=O)N(C)[C@H](C(=O)N[C@H]2Cc3cc(O)cc(c3)-c3ccc4c(c3)c(c(-c3cccnc3[C@@H](OC)C3CC3)n4CC)CC(C)(C)COC(=O)[C@@H]3CCCN(N3)C2=O)C(C)C)C1 (atropisomer, axis not shown) [Example A206]
pIC50 [1, 10]: 6.00 to 7.00

C=CC(=O)N1CC[C@H](C(=O)N(C)[C@H](C(=O)N[C@H]2C[C@H]3CN(CCO3)c3ccc4c(c3)c(c(-c3cccnc3[C@H](C)OC)n4CC)CC(C)(C)COC(=O)[C@@H]3CCCN(N3)C2=O)C(C)C)C1 (atropisomer, axis not shown) [Example A378]
pIC50 [1, 10]: 6.00 to 7.00

CCn1c(-c2cccnc2COC)c2c3cc(ccc31)-c1cc(O)cc(c1)C[C@H](NC(=O)[C@H](C(C)C)N(C)C(=O)[C@H]1CCN(C(C)=O)C1)C(=O)N1CCC[C@H](N1)C(=O)OCC(C)(C)C2 [Example A22]
pIC50 [2, 11]: 6.00 to 7.00
pIC50 [3, 12]: 5.00 to 6.00
pIC50 [4, 13]: 6.00 to 7.00
pIC50 [5, 14]: 6.00 to 7.00
pIC50 [6, 15]: 5.00 to 6.00
pIC50 [7, 16]: 6.00 to 7.00
pIC50 [8, 17]: 6.00 to 7.00
pIC50 [1, 18]: 5.00 to 6.00

CCn1c(-c2cnccc2COC)c2c3cc(ccc31)-c1cc(O)cc(c1)C[C@H](NC(=O)[C@H](C(C)C)N(C)C(=O)[C@@H]1CCN(C[C@@H](C)O)C1)C(=O)N1CCC[C@H](N1)C(=O)OCC(C)(C)C2 [Example A31]
pIC50 [9]: 6.00 to 7.00
pIC50 [1, 18]: < 5.00

C=CC(=O)N1CC[C@H](C(=O)N(C)[C@H](C(=O)N[C@H]2Cc3cc(O)cc(c3)-c3ccc4c(c3)c(c(-c3ccccc3CCOC)n4C(C)(C)C#N)CC(C)(C)COC(=O)[C@@H]3CCCN(N3)C2=O)C(C)C)C1 [Example A34]
pIC50 [1, 10]: 7.00 to 8.00

CCn1c(-c2cnccc2COC)c2c3cc(ccc31)-c1cc(O)cc(c1)C[C@H](NC(=O)[C@H](C(C)C)N(C)C(=O)[C@H]1CCN(C(C)C)C1)C(=O)N1CCC[C@H](N1)C(=O)OCC(C)(C)C2 [Example A41]
pIC50 [2, 11]: 6.00 to 7.00
pIC50 [4, 13]: 6.00 to 7.00
pIC50 [5, 14]: 7.00 to 8.00
pIC50 [6, 15]: 6.00 to 7.00
pIC50 [7, 16]: 5.00 to 6.00
pIC50 [8, 17]: 6.00 to 7.00
pIC50 [1, 18]: 5.00 to 6.00

CCn1c(-c2cccnc2COC)c2c3cc(ccc31)-c1cc(O)cc(c1)C[C@H](NC(=O)[C@H](C(C)C)N(C)C(=O)[C@H](N)CCCNC(=N)N)C(=O)N1CCC[C@H](N1)C(=O)OCC(C)(C)C2 [Example A48]
pIC50 [2, 11]: 6.00 to 7.00
pIC50 [4, 13]: 6.00 to 7.00
pIC50 [5, 14]: 6.00 to 7.00
pIC50 [6, 15]: 6.00 to 7.00
pIC50 [7, 16]: 5.00 to 6.00
pIC50 [8, 17]: 6.00 to 7.00
pIC50 [1, 18]: < 5.00

CCn1c(-c2ccccc2CCOC)c2c3cc(ccc31)-c1cc(O)cc(c1)C[C@H](NC(=O)[C@H](C(C)C)N(C)C(=O)CCN)C(=O)N1CCC[C@H](N1)C(=O)OCC(C)(C)C2 [Example A70]
pIC50 ([2]; KRAS WT FRET data IC50, KRAS WT): 5.00 to 6.00
pIC50 ([3]; KRAS G13D FRET data IC50, KRAS G13D): 5.00 to 6.00
pIC50 ([4]; KRAS G12S FRET data, IC50): 5.00 to 6.00
pIC50 ([5]; KRAS G13C FRET data, IC50): 5.00 to 6.00
pIC50 ([6]; KRAS G12D FRET data, IC50): 5.00 to 6.00
pIC50 ([7]; KRAS G12V FRET data IC50, KRAS G12V): < 5.00
pIC50 ([8]; KRAS G12C FRET data, IC50): 5.00 to 6.00
pIC50 [1, 18]: 5.00 to 6.00

C=CC(=O)N1CC[C@H](C(=O)N(C)[C@H](C(=O)N[C@H]2Cc3cc(O)cc(c3)-c3ccc4c(c3)c(c(-c3ccncc3COC)n4CC)CC(C)(C)COC(=O)[C@@H]3CCCN(N3)C2=O)C(C)C)C1 [Example A91]
pIC50 [1, 10]: > 8.00

CCn1c(-c2cccnc2COC)c2c3cc(ccc31)-c1cc(C)cc(c1)C[C@H](NC(=O)[C@H](C(C)C)N(C)C(=O)[C@H]1CCN(C(=O)C#CCN(C)C)C1)C(=O)N1CCC[C@H](N1)C(=O)OCC(C)(C)C2 [Example A157]
pIC50 [1, 10]: > 8.00

CCn1c(-c2cccnc2[C@H](C)OC)c2c3cc(ccc31)-c1cc(O)cc(c1)C[C@H](NC(=O)[C@H](C(C)C)N(C)C(=O)[C@@H]1C[C@@H]1F)C(=O)N1CCC[C@H](N1)C(=O)OCC(C)(C)C2 [Example A160]
pIC50 [7, 16]: 7.00 to 8.00
pIC50 [1, 18]: 7.00 to 8.00

CCn1c(-c2cccnc2[C@H](C)OC)c2c3cc(ccc31)-c1cc(O)cc(c1)C[C@H](NC(=O)[C@H](C(C)C)N(C)C(=O)[C@@H]1NC[C@@H]3C[C@@H]31)C(=O)N1CCC[C@H](N1)C(=O)OCC(C)(C)C2 [Example A217]
pIC50 [1, 18]: 7.00 to 8.00

CCn1c(-c2cccnc2[C@H](C)OC)c2c3cc(ccc31)-c1cc(O)cc(c1)C[C@H](NC(=O)[C@H](C(C)C)N(C)C(=O)C1CCCC1)C(=O)N1CCC[C@H](N1)C(=O)OCC(C)(C)C2 [Example A219]
pIC50 [1, 18]: 6.00 to 7.00

CCn1c(-c2cccnc2[C@H](C)OC)c2c3cc(ccc31)-c1csc(n1)C[C@H](NC(=O)[C@H](C(C)C)N1CCC3(CCN(C(=O)OC)C3)C1=O)C(=O)N1CCC[C@H](N1)C(=O)OCC(C)(C)C2 (stereo partly shown) [Example A221]
pIC50 [1, 18]: 6.00 to 7.00

CCn1c(-c2cccnc2[C@H](C)OC)c2c3cc(ccc31)-c1cc(O)cc(c1)C[C@H](NC(=O)[C@H](C(C)C)N(C)C(=O)[C@@H]1C[C@@H]1C)C(=O)N1CCC[C@H](N1)C(=O)OCC(C)(C)C2 [Example A223]
pIC50 [1, 18]: 7.00 to 8.00

C=CC(=O)N1CC[C@H](C(=O)N(C)[C@H](C(=O)N[C@H]2Cc3nc(cs3)-c3ccc4c(n3)c(c(-c3cccnc3[C@H](C)OC)n4CC)CC(C)(C)COC(=O)[C@@H]3CCCN(N3)C2=O)C(C)C)C1 [Example A347, (2S)—N-[(7S,13S)-21-ethyl-20-{2-[(1S)-1-methoxyethyl]pyridin-3-yl}-17,17-dimethyl-8,14-dioxo-15-oxa-4-thia-9,21,25,27,28-pentaazapentacyclo[17.5.2.1^{2,5}.1^{9,13}.0^{22,26}]octacosa-1(25),2,5(25),19,22(26),23-hexaen-7-yl]-3-methy-2-{N-methyl-1-[(3S)-1-(prop-2-enoyl)pyrrolidin-3-yl]formamido}butanamide]
pIC50 [1, 10]: 6.00 to 7.00

C=CC(=O)N1CC(OC[C@H](C(=O)N[C@H]2Cc3cccc(c3)-c3ccc4c(c3)c(c(-c3cccnc3[C@H](C)OC)n4CC(F)(F)F)CC(C)(C)COC(=O)[C@@H]3CCCN(N3)C2=O)C(C)C)C1 [Example A453]
pIC50 [2, 11]: < 5.00
pIC50 [9]: 5.00 to 6.00
pIC50 [3, 12]: < 5.00
pIC50 [4, 13]: < 5.00
pIC50 ([5]; KRAS G13C, read-out: KRAS G13C FRET data IC50): < 5.00
pIC50 [7, 16]: < 5.00
pIC50 [8, 19]: 5.00 to 6.00
pIC50 [1, 10]: 6.00 to 7.00

C=CC(=O)N1CC[C@H](C(=O)N(C)[C@H](C(=O)N[C@H]2CCC(=O)N(C)Cc3ccc4c(c3)c(c(-c3cccnc3[C@H](C)OC)n4CC)CC(C)(C)COC(=O)[C@@H]3CCCN(N3)C2=O)C(C)C)C1 [Example A500]
pIC50 [9]: < 5.00
pIC50 [3, 12]: < 5.00
pIC50 [8, 19]: < 5.00
pIC50 [1, 10]: < 6.00

C=CC(=O)Nc1cnc(C(=O)N(C)[C@H](C(=O)N[C@H]2Cc3cccc(c3)-c3ccc4c(c3)c(c(-c3cccnc3[C@H](C)OC)n4CC)CC(C)(C)COC(=O)[C@@H]3CCCN(N3)C2=O)C(C)C)n1C [Example A525]
pIC50 [1, 10]: > 8.00
